We go through two compounds from patent publication US20050234122A1, “Prevention of and countermeasures against viral infection” (LIFE SCIENCE INSTITUTE, LTD., priority 2004, published 2005).

A short description of data set [1]: Viscosity of mucopolysaccharides after adding vitamin C (Oswald viscometer). The following applies: vitamin C added to mucopolysaccharides.
Data set [2] is described as follows: Oxidation of vitamin C dissolved in a juice. In kind it is physicochemical. The following applies: within about 90 minutes.
A short description of data set [3]: Activity of vitamin C in drip infusion depending on pH. In kind it is physicochemical. The following applies: drip infusion with a pH of 7.0 or greater.
In data set [4] the test system is immune function. The following applies: cited from earlier work.
The conditions of data set [5]: rats suffering from artificial peritonitis; cited from earlier work.

As to `O=C1O[C@H]([C@@H](O)CO)C(O)=C1O` [vitamin C, ascorbic acid], the “viscosity of the mixture” value in data set [1] is on record as “gradually decreases”. In addition, in data set [2], the “vitamin C that becomes an oxidized derivative” value stood at 50%. The “activity of vitamin C” value in data set [3] was “decreases”.

In the case of `N=C(N)NCCC[C@H](N)C(=O)O` [arginine], the “decreased weight of the thymus gland and decreased T-cells' capability of blast transformation” value in data set [4] (rat suffering from fracture) was “recovered”. Moreover, in data set [4] (rats), the “T-cells' capability of blast transformation” value is given as “increases” and the “weight of the thymus gland” value is on record as “increases”. In data set [5], the survivorship entry is recorded as “remarkably increased survivorship”.
